These results are taken from patent publication US11981686B2, “Urea compound having substituent” (DAIICHI SANKYO COMPANY, LIMITED, priority 2019, dated 2024).

SIRT6 enzyme, sequence (Q8N6T7 whole entry, species assumed): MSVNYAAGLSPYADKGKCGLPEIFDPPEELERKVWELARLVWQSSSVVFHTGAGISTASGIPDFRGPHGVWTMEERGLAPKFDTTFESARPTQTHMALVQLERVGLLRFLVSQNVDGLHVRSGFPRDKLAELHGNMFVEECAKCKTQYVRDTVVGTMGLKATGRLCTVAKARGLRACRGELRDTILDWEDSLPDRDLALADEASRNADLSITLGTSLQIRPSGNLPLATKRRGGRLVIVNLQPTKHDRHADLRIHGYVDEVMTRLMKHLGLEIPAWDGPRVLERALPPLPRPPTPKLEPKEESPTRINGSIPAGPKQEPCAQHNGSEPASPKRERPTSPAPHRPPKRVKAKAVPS

For the assay, the target named is SIRT6 enzyme (Homo sapiens, UniProt Q8N6T7). The experiment in a line: Measurement of deacetylation activity (SIRT6, AlphaLISA, H3K9(Ac) peptide). Format: biochemical. To be noted: SIRT6 25 ng/mL, H3K9(Ac) biotin peptide 2 nM, NAD 10 μM, room temperature 30 minutes, duplicate. In outline:
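Activation read as EC150, the concentration giving 150% activity relative to enzyme/no-enzyme DMSO controls, via variable-slope fit. Deacetylation of 2 nM biotinylated H3K9(Ac) peptide with 10 μM NAD+ by 25 ng/mL SIRT6 ran 30 min at room temperature, pH 8.0, then AlphaLISA detection of unmodified H3K9.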
Background: Alpha assays give light when donor and acceptor beads are brought close together.
In the case of `O=C(Nc1nc2c(s1)[C@@H]1COC[C@H](C2)N1c1ncc(-c2cccc(OC(F)F)n2)o1)NC1(CO)CC1` [Example 181, N-[(4S,8S)-10-{5-[6-(difluoromethoxy)pyridin-2-yl]-1,3-oxazol-2-yl}-4,7,8,9-tetrahydro-5H-4,8-epiminooxocino[5,4-d][1,3]thiazol-2-yl]-N′-[1-(hydroxymethyl)cyclopropyl]urea], the “EC150 (the concentration of the compound showing a relative enzyme activity of 150%)” value stood at 0.53 μm. The value for `O=C(NCC1(O)CC1)Nc1nc2c(s1)[C@@H]1COC[C@H](C2)N1c1ncc(-c2cccc(OC(F)F)n2)o1` [Example 179, N-[(4S,8S)-10-{5-[6-(difluoromethoxy)pyridin-2-yl]-1,3-oxazol-2-yl}-4,7,8,9-tetrahydro-5H-4,8-epiminooxocino[5,4-d][1,3]thiazol-2-yl]-N′-[(1-hydroxycyclopropyl)methyl]urea] was 0.72 μm; that for `O=C(NC[C@H]1COCCO1)Nc1nc2c(s1)[C@@H]1COC[C@H](C2)N1c1nc(-c2ccc(F)cc2)no1` [Example 29, N-{[(2S)-1,4-dioxan-2-yl]methyl}-N′-{(4S,8S)-10-[3-(4-fluorophenyl)-1,2,4-oxadiazol-5-yl]-4,7,8,9-tetrahydro-5H-4,8-epiminooxocino[5,4-d][1,3]thiazol-2-yl}urea] was 0.69 μm; that for `O=C(Nc1nc2c(s1)[C@@H]1COC[C@H](C2)N1c1cc(-c2ccc(F)cc2)on1)NC1CCS(=O)(=O)CC1` [Example 165, N-(1,1-dioxo-1λ^6-thian-4-yl)-N′-{(4S,8S)-10-[5-(4-fluorophenyl)-1,2-oxazol-3-yl]-4,7,8,9-tetrahydro-5H-4,8-epiminooxocino[5,4-d][1,3]thiazol-2-yl}urea] was 0.41 μm. For `C[C@@H](CO)NC(=O)Nc1nc2c(s1)[C@@H]1COC[C@H](C2)N1c1ncc(-c2cccc(C(F)F)c2)o1` [Example 168, N-[(4S,8S)-10-{5-[3-(difluoromethyl)phenyl]-1,3-oxazol-2-yl}-4,7,8,9-tetrahydro-5H-4,8-epiminooxocino[5,4-d][1,3]thiazol-2-yl]-N′-[(2S)-1-hydroxypropan-2-yl]urea], the “EC150 (the concentration of the compound showing a relative enzyme activity of 150%)” value is on record as 0.35 μm. For the compound `O=C(Nc1nc2c(s1)CN(c1nc(C3CCC(F)(F)CC3)no1)CC2)NC1(CO)CC1` [Example 105, N-{5-[3-(4,4-difluorocyclohexyl)-1,2,4-oxadiazol-5-yl]-4,5,6,7-tetrahydro[1,3]thiazolo[5,4-c]pyridin-2-yl}-N′-[1-(hydroxymethyl)cyclopropyl]urea], the “EC150 (the concentration of the compound showing a relative enzyme activity of 150%)” value was 2 μm. Then `CC(C)(O)CNC(=O)Nc1nc2c(s1)CN(c1nc(C34CC(C(F)F)(C3)C4)no1)CC2` [Example 96, N-(5-{3-[3-(difluoromethyl)bicyclo[1.1.1]pentan-1-yl]-1,2,4-oxadiazol-5-yl}-4,5,6,7-tetrahydro[1,3]thiazolo[5,4-c]pyridin-2-yl)-N′-(2-hydroxy-2-methylpropyl)urea], with 1.6 μm; and `CNC(=O)Nc1nc2c(s1)C1CN(S(C)(=O)=O)CC(C2)N1c1nc(-c2ccc(F)cc2)no1` (centres unmarked) [Example 31, N-{10-[3-(4-fluorophenyl)-1,2,4-oxadiazol-5-yl]-6-(methanesulfonyl)-4,5,6,7,8,9-hexahydro-4,8-epimino[1,3]thiazolo[5,4-d]azocin-2-yl}-N′-methylurea], with 2.5 μm. Consider `CNC(=O)Nc1nc2c(s1)CN(c1nc(C34CCC(F)(CC3)C4)no1)CC2` [Example 93, N-{5-[3-(4-fluorobicyclo[2.2.1]heptan-1-yl)-1,2,4-oxadiazol-5-yl]-4,5,6,7-tetrahydro[1,3]thiazolo[5,4-c]pyridin-2-yl}-N′-methylurea], for which the “EC150 (the concentration of the compound showing a relative enzyme activity of 150%)” value was 0.7 μm. The value for `CC(C)(O)CNC(=O)Nc1nc2c(s1)CN(c1nc(C3CCC(F)(F)CC3)no1)CC2` [Example 88, N-{5-[3-(4,4-difluorocyclohexyl)-1,2,4-oxadiazol-5-yl]-4,5,6,7-tetrahydro[1,3]thiazolo[5,4-c]pyridin-2-yl}-N′-(2-hydroxy-2-methylpropyl)urea] was 1.1 μm; that for `C[C@@H](CO)NC(=O)Nc1nc2c(s1)[C@@H]1COC[C@H](C2)N1c1ncc(-c2cccc(OC(F)F)c2)o1` [Example 173, N-[(4S,8S)-10-{5-[3-(difluoromethoxy)phenyl]-1,3-oxazol-2-yl}-4,7,8,9-tetrahydro-5H-4,8-epiminooxocino[5,4-d][1,3]thiazol-2-yl]-N′-[(2S)-1-hydroxypropan-2-yl]urea] was 0.62 μm; that for `C[C@H](O)CNC(=O)Nc1nc2c(s1)[C@@H]1COC[C@H](C2)N1c1ncc(-c2cccc(OC(F)F)n2)o1` [Example 174, N-[(4S,8S)-10-{5-[6-(difluoromethoxy)pyridin-2-yl]-1,3-oxazol-2-yl}-4,7,8,9-tetrahydro-5H-4,8-epiminooxocino[5,4-d][1,3]thiazol-2-yl]-N′-[(2S)-2-hydroxypropyl]urea] was 0.74 μm. The value for `CNC(=O)Nc1nc2c(s1)[C@@H]1COC[C@H](C2)N1c1nnc(-c2cccc(OC(F)F)c2)o1` [Example 22, N-[(4S,8S)-10-{5-[3-(difluoromethoxy)phenyl]-1,3,4-oxadiazol-2-yl}-4,7,8,9-tetrahydro-5H-4,8-epiminooxocino[5,4-d][1,3]thiazol-2-yl]-N′-methylurea] was 1.3 μm. With `CNC(=O)Nc1nc2c(s1)C1COCC(C2)N1c1nc(-c2cccc(C(=O)C3CC3)c2)no1` (centres unmarked) [Example 112, N-(10-{3-[3-(cyclopropanecarbonyl)phenyl]-1,2,4-oxadiazol-5-yl}-4,7,8,9-tetrahydro-5H-4,8-epiminooxocino[5,4-d][1,3]thiazol-2-yl)-N′-methylurea], the “EC150 (the concentration of the compound showing a relative enzyme activity of 150%)” value was 1.4 μm. As to `CNC(=O)Nc1nc2c(s1)C1COCC(C2)N1c1nnc(-c2cccc(C(F)F)c2)o1` (centres unmarked) [Example 109, N-(10-{5-[3-(difluoromethyl)phenyl]-1,3,4-oxadiazol-2-yl}-4,7,8,9-tetrahydro-5H-4,8-epiminooxocino[5,4-d][1,3]thiazol-2-yl)-N′-methylurea], the “EC150 (the concentration of the compound showing a relative enzyme activity of 150%)” value is given as 1.4 μm. The value for `O=C(Nc1nc2c(s1)[C@@H]1COC[C@H](C2)N1c1ncc(-c2cccc(OC(F)F)c2)o1)N[C@H]1C[C@H](O)C1` [Example 167, N-[(4S,8S)-10-{5-[3-(difluoromethoxy)phenyl]-1,3-oxazol-2-yl}-4,7,8,9-tetrahydro-5H-4,8-epiminooxocino[5,4-d][1,3]thiazol-2-yl]-N′-[(1r,3S)-3-hydroxycyclobutyl]urea] was 0.43 μm; that for `C[C@@H](O)CNC(=O)Nc1nc2c(s1)C1COCC(C2)N1c1nc(-c2ccc(F)cc2)no1` (stereo partly drawn) [Example 82, N-{10-[3-(4-fluorophenyl)-1,2,4-oxadiazol-5-yl]-4,7,8,9-tetrahydro-5H-4,8-epiminooxocino[5,4-d][1,3]thiazol-2-yl}-N′-[(2R)-2-hydroxypropyl]urea] was 1.7 μm.
